Results on 1 molecule are retold here after ChEMBL document CHEMBL1150711, “Maquiroside A, a new cytotoxic cardiac glycoside from Maquira calophylla” (1987).

The subject of this test is KB. In words: Cytotoxicity against human KB cells. The format is functional. As to conditions: read-out: ED50 (the source's name).

Each structure is given as a SMILES string. Converted amounts (≈) assume the structure as drawn.

As for `CO[C@H]1C[C@H](O[C@H]2CC[C@@]3(CO)[C@H](CC[C@@H]4[C@@H]3CC[C@]3(C)[C@@H](C5=CC(=O)OC5)CC[C@]43O)C2)O[C@H](C)[C@H]1O` [MAQUIROSIDE A], the EC50 turned out to be 0.013 µg/mL (≈ 0.0243 µM).
